Laboratory results published in patent US20240262842A1, “SMALL MOLECULE INHIBITORS OF KRAS G12C MUTANT” (Merck Sharp & Dohme LLC, priority 2021, published 2024).
pIC50: −log10 of the molar value. Like-named read-outs stand apart in the source and are kept apart here.

Columns and labels:
MIA PaCa-2 cells = assay: Growth inhibition activity on KRAS-G12C mutant cell line (CellTiter-Glo 3D); format: cell-based, human; settings: MIA PaCa-2, 3-day culture with compound
Summary of the method: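 IC50 (nM) derived from inhibition of luminescence (CellTiter-Glo 3D) relative to compound-free wells. Cells were seeded in U-bottom plates, grown 1 day, then exposed to compound for 3 days at 37 °C with 0.2% final DMSO.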

[1] = target: T1, interaction between GMPPNP-bound recombinant K-Ras4B G12C mutant protein and cRAF RAS-binding domain (cRAF-RBD) (Homo sapiens, UniProt P01116, G12C); assay: Inhibitory activity on interaction between KRAS G12C and cRAF (Alpha technology)
T1 construct: His-tag (N)
Summary of the method: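 Alpha signal measured 1.5 h after adding cRAF-RBD (aa 50-132) and detection reagents to GMPPNP-bound KRAS G12C (aa 1-169) pretreated 1 h at 25° C with compound (pH 7.5 buffer). 0% inhibition = DMSO, 100% = GDP-loaded KRAS; IC50 by curve fit.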

[2] = Homo sapiens, MIA PaCa-2, 72 h, Table 3
[3] = GMPPNP-bound KRAS G12C incubated with compound 25° C. 1 hour, Table 2, read-out: IC50
[4] = Homo sapiens, MIA PaCa-2, 72 h, Table 3-1
[5] = GMPPNP-bound KRAS G12C incubated with compound 25° C. 1 hour, Table 2-1, read-out: IC50
[6] = IC50, GMPPNP-bound KRAS G12C incubated with compound 25° C. 1 hour, Table 2-1
[7] = IC50, GMPPNP-bound KRAS G12C incubated with compound 25° C. 1 hour, Table 2

T1 sequence (P01116 with tags, fused parts or gaps isoform P01116-2 G12C): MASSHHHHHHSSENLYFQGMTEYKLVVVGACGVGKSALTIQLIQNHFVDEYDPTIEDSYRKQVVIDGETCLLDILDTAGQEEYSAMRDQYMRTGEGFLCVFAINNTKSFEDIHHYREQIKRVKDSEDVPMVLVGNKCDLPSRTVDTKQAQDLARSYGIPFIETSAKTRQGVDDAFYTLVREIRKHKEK

SMILES | pIC50 (MIA PaCa-2 cells; [4]) | pIC50 [1, 5] | other results
CO[C@H]1CC[C@H](NC/C=C/C(=O)Nc2c(F)cc(C(=O)c3nn4c5c(cccc35)-c3c(C(F)(F)F)cc5c(nc(C)n5C)c3OCC4)cc2F)CC1 [Example 46, (E)-N-(4-(8,9-dimethyl-6-(trifluoromethyl)-12,13-dihydro-8H-imidazo[4″,5″:3′4′]benzo[1′,2′:7,8][1,4]oxazocino[6,5,4-hi]indazole-2-carbonyl)-2,6-difluorophenyl)-4-(((1r,4r)-4-methoxycyclohexyl)amino)but-2-enamide] | – | – | pIC50 (MIA PaCa-2 cells; [2]): 7.24; pIC50 [1, 3]: 6.85
Cn1cnc2c3c(c(C(F)(F)F)cc21)-c1cccn2c(C(=O)c4cc(F)c(NC(=O)/C=C/CN5CCCOCC5)c(F)c4)cc(c12)CCO3 [Example 193, (E)-N-(2,6-difluoro-4-(9-methyl-7-(trifluorometh-yl)-13,14-dihydro-9H-imidazo[4″,5″:5′,6′]benzo-[1′,2′:2,3]oxocino[4,5,6-hi]indolizine-2-carbonyl)-phenyl)-4-(1,4-oxazepan-4-yl)but-2-enamide] | 7.16 | 7.40 | –
COCc1nc2c3c(c(C(F)(F)F)cc2n1C)-c1cccn2c(C(=O)c4cc(F)c(NC(=O)/C=C/CN[C@H]5CCOC5)c(F)c4)cc(c12)COC3 [Example 209, (S,E)-N-(2,6-difluoro-4-(10-(methoxymethyl)-9-methyl-7-(trifluoromethyl)-9,12-dihydro-14H-imidazo[4″,5″:3′,4′]benzo[1′,2′:6,7]oxocino[5,4,3-hi]indolizine-2-carbonyl)phenyl)-4-((tetrahydrofuran-3-yl)amino)but-2-enamide] | 7.73 | 7.33 | –
Cc1nc2c3c(c(C(F)(F)F)cc2n1C)-c1cccn2c(C(=O)c4cc(F)c(NC(=O)/C=C/CNC5CCP(C)(=O)CC5)c(F)c4)cc(c12)CCO3 (stereo not drawn) [Example 36] | – | – | pIC50 (MIA PaCa-2 cells; [2]): 6.82; pIC50 [1, 3]: 7.89
COCCn1cnc2c3c(c(C(F)(F)F)cc21)-c1cccn2c(C(=O)c4cc(F)c(NC(=O)/C=C/CNC5(C)COC5)c(F)c4)cc(c12)CCN3C (single isomer, unassigned) [Example 178, (E)-N-(2,6-difluoro-4-(9-(2-methoxyethyl)-12-methyl-7-(trifluorometh-yl)-9,12,13,14-tetrahydro-imidazo[4″,5″:5′,6′]benzo-[1′,2′:2,3]azocino[4,5,6-hi]indolizine-2-carbonyl)-phenyl)-4-((3-methyl-oxetan-3-yl)amino)but-2-enamide] | 7.38 | 7.49 | –
COc1cc2c(nc(C)n2C)c2c1-c1cccn3c(C(=O)c4cc(F)c(NC(=O)/C=C/CNC5CCCCC5)c(F)c4)cc(c13)CCN2C [Example 104, (E)-4-(cyclohexylamino)-N-(2,6-difluoro-4-(7-methoxy-9,10,12-trimeth-yl-9,12,13,14-tetrahydro-imidazo[4″,5″:5′,6′]benzo-[1′,2′:2,3]azocino[4,5,6-hi]indolizine-2-carbon-yl)phenyl)but-2-enamide] | 7.81 | 7.38 | –
COCc1nc2c3c(c(C(F)(F)F)cc2n1C)-c1cccn2c(C(=O)c4cc(F)c(NC(=O)/C=C/CN[C@H]5CCOC5)c(F)c4)cc(c12)CCN3C (single isomer, unassigned) [Example 98] | 8.40 | 7.95 | –
CN1CCc2cc(C(=O)c3cc(F)c(NC(=O)/C=C/CN4CCCC4)c(F)c3)n3cccc(c23)-c2c(C(F)(F)F)cc3c(ncn3C)c21 [Example 226, (E)-N-(4-(9,12-dimethyl-7-(trifluoromethyl)-9,12,13,14-tetrahydro-imidazo[4″,5″:5′,6′]benzo-[1′,2′:2,3]azocino[4,5,6-hi]indolizine-2-carbonyl)-2,6-difluorophenyl)-4-(pyrrolidin-1-yl)but-2-enamide] | 7.87 | 7.20 | –
COc1cc2c(nc(C)n2C)c2c1-c1cc(F)cn3c(C(=O)c4cc(F)c(NC(=O)/C=C/CN[C@H]5CCOC5)c(F)c4)cc(c13)CCN2C (single isomer, unassigned) [Example 237] | 8.56 | 7.94 | –
Cc1c2cc(C(F)(F)F)c3c(c2nn1C)N(C)CCc1cc(C(=O)c2cc(F)c(NC(=O)/C=C/CNC4(C)CC4)c(F)c2)n2cccc-3c12 (single isomer, unassigned) [Example 155, (E)-N-(2,6-difluoro-4-(9,10,12-trimethyl-7-(trifluoromethyl)-10,12,13,14-tetrahydro-indolizino[8′,1′:4,5,6]-azocino[3,2-g]indazole-2-carbonyl)phenyl)-4-((1-methylcyclopropyl)-amino)but-2-enamide] | 7.87 | 8.05 | –
CO[C@H]1CC[C@H](NC/C=C/C(=O)Nc2c(F)cc(C(=O)c3cc4c5c(cccn35)-c3c(C)cc5c(nc(C)n5C)c3OCC4)cc2F)CC1 [Example 32, (E)-N-(2,6-difluoro-4-(7,9,10-trimethyl-13,14-dihydro-9H-imidazo[4″,5″:5′,6]benzo[1′,2′:2,3]oxocino[4,5,6-hi]indolizine-2-carbonyl)phenyl)-4-(((1,4r)-4-methoxycyclohexyl)amino)but-2-enamide] | – | – | pIC50 (MIA PaCa-2 cells; [2]): 7.07; pIC50 [1, 3]: 7.57
Cn1cnc2c3c(c(C(F)(F)F)cc21)-c1cccn2c(C(=O)c4cc(F)c(NC(=O)/C=C/CN5C[C@@H]6C[C@H]5CO6)c(F)c4)cc(c12)CCO3 [Example 189, (E)-4-((1S,4S)-2-oxa-5-azabicyclo[2.2.1]heptan-5-yl)-N-(2,6-difluoro-4-(9-methyl-7-(trifluoro-methyl)-13,14-dihydro-9H-imidazo[4″,5″:5′,6′]-benzo[1′,2′:2,3]oxocino-[4,5,6-hi]indolizine-2-carbonyl)phenyl)but-2-enamide] | 8.21 | 7.82 | –
Cn1cnc2c3c(c(C(F)(F)F)cc21)-c1cccn2c(C(=O)c4cc(F)c(NC(=O)/C=C/CN5CCC5)c(F)c4)cc(c12)CCO3 [Example 161, (E)-4-(azetidin-1-yl)-N-(2,6-difluoro-4-(9-methyl-7-(trifluoromethyl)-13,14-dihydro-9H-imidazo-[4″,5″:5′,6′]benzo[1′,2′: 2,3]oxocino[4,5,6-hi]-indolizine-2-carbonyl)-phenyl)but-2-enamide] | 7.66 | 7.20 | –
CO[C@H]1CC[C@H](NC/C=C/C(=O)Nc2c(F)cc(C(=O)c3cn4c5c(cccc35)-c3c(C(F)(F)F)cc5c(nc(C)n5C)c3N(C)CC4)cc2F)CC1 (single isomer, unassigned) [Example 55, (E)-N-(2,6-difluoro-4-(8,9,11-trimethyl-6-(tri-fluoromethyl)-8,11,12,13-tetrahydroimidazo[4″,5″: 5′,6′]benzo[1′,2′:5,6][1,4]-diazocino[7,8,1-hi]indole-2-carbonyl)phenyl)-4-(((1r,4r)-4-methoxycyclo-hexyl)amino)but-2-en-amide] | 8.47 | – | pIC50 [1, 6]: 7.93
CO[C@H]1CC[C@H](NC/C=C/C(=O)Nc2c(F)cc(C(=O)c3cn4c5c(cccc35)-c3c(C(F)(F)F)cc5c(nc(C)n5C)c3CCCC4)cc2F)CC1 [Example 29, (E)-N-(4-(8,9-dimethy 1-6-(trifluoromethyl)-11,12,13,14-tetrahydro-8H-imidazo[4″,5″:3′,4′]benzo[1′,2:4,5]azonino[3,2,1-hi]indole-2-carbonyl)-2,6-difluorophenyl)-4-(((1r,4r)-4-methoxycyclohexyl)amino)but-2-enamide] | – | – | pIC50 (MIA PaCa-2 cells; [2]): 7.28; pIC50 [1, 7]: 6.66
CN1CCc2cc(C(=O)c3cc(F)c(NC(=O)/C=C/CN[C@H]4CCCC[C@@H]4O)c(F)c3)n3cccc(c23)-c2c(C(F)(F)F)cc3c(ncn3C)c21 [Example 101] | 7.58 | 7.56 | –
CO[C@H]1CC[C@H](NC/C=C/C(=O)Nc2c(F)cc(C(=O)c3cn4c5c(cccc35)-c3c(C(F)(F)F)cc5c(nc(C)n5C)c3OCC4)cc2F)CC1 (single isomer, unassigned) [Example 12-1, (E)-N-(4-(8,9-dimethyl-6-(trifluoromethyl)-12,13-dihydro-8H-imidazo[4″,5″:3′,4′]benzol[1′,2′:7,8][1,4]oxazocino[6,5,4-hi]indole-2-carbonyl)-2,6-difluorophenyl)-4-(((1r,4r)-4-methoxycyclohexyl)amino)but-2-enamide] | – | – | pIC50 (MIA PaCa-2 cells; Table 3): 9.00; pIC50 [1, 7]: 8.30
CO[C@H]1CC[C@H](NC/C=C/C(=O)Nc2c(F)cc(C(=O)c3cn4c5c(cccc35)-c3c(C)cc5c(nc(C)n5C)c3O[C@H](C)C4)cc2F)CC1 [Example 19, (E)-N-(2,6-difluoro-4-((R)-6,8,9,12-tetramethy 1-12,13-dihydro-8H-imidazo[4″,5″:3′,4′]benzo[1′,2′:7,8][1,4]oxazocino[6,5,4-hi]indole-2-carbonyl)phenyl)-4-(((1,4r)-4-methoxycyclohexyl)amino)but-2-enamide] | – | – | pIC50 (MIA PaCa-2 cells; [2]): 5.48; pIC50 [1, 7]: < 5.17
CO[C@H]1CC[C@H](NC/C=C/C(=O)Nc2c(F)cc(C(=O)c3cn4c5c(cccc35)-c3c(cccc3C(F)(F)F)OCC4)cc2F)CC1 (single isomer, unassigned) [Example 11-1] | – | – | pIC50 (MIA PaCa-2 cells; Table 3): 5.11; pIC50 [1, 7]: < 5.17
CC(=O)CC(C)(C)NC/C=C/C(=O)Nc1c(F)cc(C(=O)c2cn3c4c(cccc24)-c2c(C)cc4c(nc(C)n4C)c2N(C)CC3)cc1F [Example 108] | 6.48 | – | pIC50 [1, 6]: 7.27
Cc1nc2c3c(c(C(F)(F)F)cc2n1C)-c1cccn2c(C(=O)c4cc(F)c(NC(=O)/C=C/CN[C@@H]5COC[C@H]5O)c(F)c4)cc(c12)CCN3C [Example 137] | 7.83 | 7.47 | –
